This test concerns the target T1, Endogenous BCL6 (Homo sapiens, UniProt P41182).
T1 construct: Endogenous BCL6 was tagged with the 11-amino acid SmBiT through CRISPR/Cas9 gene editing; endogenous in cells; host or cells: SU-DHL-4 (CRISPR/Cas9 knock-in single cell clone)
Put plainly: HiBiT cellular degradation assay in SU-DHL-4 cells. The test is classed as cell-based. Conditions: 24 hours of compound treatment, concentration to reach 50% degradation. As to the method: DC50 (concentration to reach 50% degradation) values were determined from a cellular degradation assay (HiBiT, Promega™) in Su-DHL-4 cells (Table 1). Endogenous BCL6 was tagged with the 11-amino acid SmBiT through CRISPR/Cas9 gene editing and single cell clone selection. After 24 hours of compound treatment, cells were lysed and incubated with LgBiT protein to reconstitute intact nanoluciferase. Substrate was then added and relative luciferase units were measured. Degradation levels for each treatment were taken as a percentage compared to the control, 100% DMSO (Prism).

Bounds are passed on as bounds.

As for `CNC(=O)CCn1c(=O)c(=O)n(C)c2ccc(Nc3nc(N4C[C@H](C)C[C@H](C)C4)ncc3Cl)cc21` [Compound 1, 3-(7-((5-chloro-2-((3S,5R)-3,5-dimethylpiperidin-1-yl)pyrimidin-4-yl)amino)-4-methyl-2,3-dioxo-3,4-dihydroquinoxalin-1(2H)-yl)-N-methylpropanamide], it took 25 nM to reach half-maximal degradation (DC50).
In the case of `C[C@@H]1CN(c2ncc(Cl)c(Nc3ccc4c(c3)n(CCC(=O)NC3CN(C)C3)c(=O)c(=O)n4C)n2)C[C@H](C)C1(F)F` [Compound 8] it was greater than 10000 nM; in that of `C[C@@H]1CN(c2ncc(Cl)c(Nc3ccc4c(c3)n(CCC(=O)NC3CCN(C)C3)c(=O)c(=O)n4C)n2)C[C@H](C)C1(F)F` (stereo partly shown) [Compound 9], 220 nM; in that of `C[C@@H]1CN(c2ncc(Cl)c(Nc3ccc4c(c3)n(CCC(=O)NCC3CN(C)C3)c(=O)c(=O)n4C)n2)C[C@H](C)C1(F)F` [Compound 11], 3100 nM.
Take `C[C@@H]1CN(c2ncc(Cl)c(Nc3ccc4c(c3)n(CCC(=O)NCC3CCN(C)C3)c(=O)c(=O)n4C)n2)C[C@H](C)C1(F)F` (stereo partly shown) [Compound 12]: the DC50 (usually the concentration giving 50% degradation) is 1800 nM.
Then `C[C@@H]1CN(c2ncc(Cl)c(Nc3ccc4c(c3)n(CCC(=O)NCCN(C)C)c(=O)c(=O)n4C)n2)C[C@H](C)C1(F)F` [Compound 18], with 450 nM.
Then `C[C@@H]1CN(c2ncc(Cl)c(Nc3ccc4c(c3)n(CCC(=O)NCCCN(C)C)c(=O)c(=O)n4C)n2)C[C@H](C)C1(F)F` [Compound 19], with 500 nM; and `C[C@@H]1CN(c2ncc(Cl)c(Nc3ccc4c(c3)n(CCC(=O)NC3COC3)c(=O)c(=O)n4C)n2)C[C@H](C)C1(F)F` [Compound 28], with 32 nM; and `C[C@@H]1CN(c2ncc(Cl)c(Nc3ccc4c(c3)n(CCC(=O)NC3CCOC3)c(=O)c(=O)n4C)n2)C[C@H](C)C1(F)F` (stereo partly shown) [Compound 29], with 71 nM.
In the case of `C[C@@H]1CN(c2ncc(Cl)c(Nc3ccc4c(c3)n(CCC(=O)NCC3COC3)c(=O)c(=O)n4C)n2)C[C@H](C)C1(F)F` [Compound 31], the DC50 was determined as 160 nM.
In the case of `C[C@@H]1CN(c2ncc(Cl)c(Nc3ccc4c(c3)n(CCC(=O)NCC3CCOC3)c(=O)c(=O)n4C)n2)C[C@H](C)C1(F)F` (stereo partly shown) [Compound 32] it was 150 nM.
Turning to `CNC(=O)Cn1c(=O)c(=O)n(C)c2ccc(Nc3nc(N4C[C@@H](C)C(F)(F)[C@@H](C)C4)ncc3Cl)cc21` [Compound 56, 2-(7-((5-chloro-2-((3R,5S)-4,4-difluoro-3,5-dimethylpiperidin-1-yl)pyrimidin-4-yl)amino)-4-methyl-2,3-dioxo-3,4-dihydroquinoxalin-1(2H)-yl)-N-methylacetamide], the DC50 came out at 14 nM.
As to `C[C@@H]1CN(c2ncc(Cl)c(Nc3ccc4c(c3)n(CC(=O)NCCN(C)C)c(=O)c(=O)n4C)n2)C[C@H](C)C1(F)F` [Compound 57], the DC50 is 340 nM.
`C[C@@H]1CN(c2ncc(Cl)c(Nc3ccc4c(c3)n(CC(=O)NC3CN(C)C3)c(=O)c(=O)n4C)n2)C[C@H](C)C1(F)F` [Compound 58] showed a DC50 of 870 nM.
Then `C[C@@H]1CN(c2ncc(Cl)c(Nc3ccc4c(c3)n(CC(=O)NC3CCN(C)C3)c(=O)c(=O)n4C)n2)C[C@H](C)C1(F)F` (stereo partly shown) [Compound 59], with 970 nM.
Take `C[C@@H]1CN(c2ncc(Cl)c(Nc3ccc4c(c3)n(CC(=O)NC3CCN(C)CC3)c(=O)c(=O)n4C)n2)C[C@H](C)C1(F)F` [Compound 60]: half-maximal degradation (DC50) was put at 1120 nM.
Then `CNC(=O)C(C)(C)Cn1c(=O)c(=O)n(C)c2ccc(Nc3nc(N4C[C@@H](C)C(F)(F)[C@@H](C)C4)ncc3Cl)cc21` [Compound 68], with 100 nM.
In the case of `C[C@@H]1CN(c2ncc(Cl)c(Nc3ccc4c(c3)n(CCC(=O)NCC(C)(C)O)c(=O)c(=O)n4C)n2)C[C@H](C)C1(F)F` [Compound 73], half-maximal degradation (DC50) was put at 130 nM.
Then `CNC(=O)[C@H]1C[C@@H](n2c(=O)c(=O)n(C)c3ccc(Nc4nc(N5C[C@@H](C)C(F)(F)[C@@H](C)C5)ncc4Cl)cc32)C1` [Compound 75-1], with 290 nM; and `CNC(=O)[C@H]1C[C@H](n2c(=O)c(=O)n(C)c3ccc(Nc4nc(N5C[C@@H](C)C(F)(F)[C@@H](C)C5)ncc4Cl)cc32)C1` [Compound 75-2], with 100 nM; and `CNC(=O)CCn1c(=O)c(=O)n(C)c2ccc(Nc3nc(N4C[C@H](CCN)C(F)(F)[C@H](C)C4)ncc3Cl)cc21` [Compound 80], with greater than 10000 nM.
For the molecule `CNC(=O)CCn1c(=O)c(=O)n(C)c2ccc(Nc3nc(N4C[C@@H](CCN)C(F)(F)[C@@H](C)C4)ncc3Cl)cc21` [Compound 81], the DC50 was 250 nM.
Then `CNC(=O)CCn1c(=O)c(=O)n(C)c2ccc(Nc3nc(N4C[C@@H](C)C(F)(F)[C@@H](N)C4)ncc3Cl)cc21` [Compound 82], with 84 nM; and `CNC(=O)CCn1c(=O)c(=O)n(C)c2ccc(Nc3nc(N4C[C@@H](N)C(F)(F)[C@@H](C)C4)ncc3Cl)cc21` [Compound 83], with 920 nM; and `CNC(=O)CCn1c(=O)c(=O)n(C)c2ccc(Nc3nc(N4C[C@@H](O)C(F)(F)[C@@H](C)C4)ncc3Cl)cc21` [Compound 85], with 94 nM.
In the case of `CNC(=O)Cn1c(=O)c(=O)n(C)c2ccc(Nc3nc(N4C[C@@H](C)C(F)(F)[C@@H](N)C4)ncc3Cl)cc21` [Compound 86] it was 120 nM.
Molecule `CNC(=O)Cn1c(=O)c(=O)n(C)c2ccc(Nc3nc(N4C[C@@H](N)C(F)(F)[C@@H](C)C4)ncc3Cl)cc21` [Compound 87] had a DC50 of 230 nM. This DC50 lies about 1.9-fold higher than the previous one.
Then `C[C@@H]1C[C@H](C)CN(c2ncc(Cl)c(Nc3ccc4c(c3)n(CC[C@@H](C)O)c(=O)c(=O)n4C)n2)C1` [Compound 107], with 47 nM; and `C[C@@H]1CN(c2ncc(Cl)c(Nc3ccc4c(c3)n(C[C@H]3C[C@H](O)C3)c(=O)c(=O)n4C)n2)C[C@H](C)C1F` (stereo partly shown) [Compound 108], with 43 nM; and `C[C@@H]1CN(c2ncc(Cl)c(Nc3ccc4c(c3)n(C[C@H]3C[C@@H](O)C3)c(=O)c(=O)n4C)n2)C[C@H](C)C1F` (stereo partly shown) [Compound 109], with 4 nM.
Molecule `C[C@@H]1CN(c2ncc(Cl)c(Nc3ccc4c(c3)n(CCC3(O)CC3)c(=O)c(=O)n4C)n2)C[C@H](C)C1F` (stereo partly shown) [Compound 110] displayed a DC50 of 18 nM. This DC50 is about 4.5-fold higher than that of the molecule before.
Take `C[C@@H]1CN(c2ncc(Cl)c(Nc3ccc4c(c3)n(CCC3(O)CCC3)c(=O)c(=O)n4C)n2)C[C@H](C)C1F` (stereo partly shown) [Compound 111]: the DC50 is 34 nM.
Then `C[C@@H]1CN(c2ncc(Cl)c(Nc3ccc4c(c3)n(CCC3(O)COC3)c(=O)c(=O)n4C)n2)C[C@H](C)C1F` (stereo partly shown) [Compound 112], with 25 nM.
Then `C[C@@H]1CN(c2ncc(Cl)c(Nc3ccc4c(c3)n(C[C@@H]3CNC(=O)O3)c(=O)c(=O)n4C)n2)C[C@H](C)[C@@H]1F` [Compound 117], with 130 nM; and `C[C@@H]1CN(c2ncc(Cl)c(Nc3ccc4c(c3)n(C[C@@H]3COC(=O)N3)c(=O)c(=O)n4C)n2)C[C@H](C)[C@@H]1F` [Compound 118], with 120 nM; and `C[C@@H]1CN(c2nc(Nc3ccc4c(c3)n(CCC3(O)CC3)c(=O)c(=O)n4C)c(Cl)cc2C#N)C[C@H](C)[C@@H]1F` [Compound 119], with 13 nM.
Then `CNC(=O)CCn1c(=O)c(=O)n(C)c2ccc(Nc3nc(N4C[C@H](CCO)C(F)(F)[C@H](C)C4)c(C#N)cc3Cl)cc21` [Compound 120], with 1900 nM; and `CNC(=O)CCn1c(=O)c(=O)n(C)c2ccc(Nc3nc(N4C[C@@H](CCO)C(F)(F)[C@@H](C)C4)c(C#N)cc3Cl)cc21` [Compound 121], with 71 nM.
In turn, `C[C@@H]1CN(c2ncc(Cl)c(Nc3ccc4c(c3)n(CC[C@@H](C)O)c(=O)c(=O)n4C)n2)C[C@H](C)[C@@H]1F` [Compound 122] registered a half-maximal degradation concentration (DC50) of 19 nM.
Then `C[C@H](O)CCn1c(=O)c(=O)n(C)c2ccc(Nc3nc(N4C[C@@H](C)[C@@H](F)[C@@H](C)C4)ncc3Cl)cc21` [Compound 123], with 23 nM.

Source of the values: patent publication US20260001862A1, “QUINOXALINEDIONE AND PYRIDO[2,3-B]PYRAZINE-2,3-DIONE B CELL LYMPHOMA 6 (BCL6) DEGRADERS AND USES THEREOF” (DANA-FARBER CANCER INSTITUTE, INC., priority 2022, published 2026).
